This is an account of results in ChEMBL document CHEMBL4052750, “Structure-based optimization and synthesis of antiviral drug Arbidol analogues with significantly improved affinity to influenza hemagglutinin” (Bioorg Med Chem Lett, 2017).

Assay [1] is described as follows: Binding affinity to Influenza A virus (A/Hong Kong/1/1968(H3N2)) […] by biolayer interferometry analysis. (BLI is a label-free optical method that tracks binding on a fibre tip over time.)
A short description of assay [2]: Binding affinity to Influenza A virus (A/Puerto Rico/8/1934(H1N1)) PR8 hemagglutinin-1 by biolayer interferometry analysis.
For assay [3], the system named is Influenza A virus (A/Hong Kong/1/1968(H3N2)). The experiment in a line: Binding affinity to Influenza A virus (A/Hong Kong/1/1968(H3N2)) […] assessed as dissociation constant after 180 secs by biolayer interferometry analysis.
Assay [4] deals with Influenza A virus (A/Puerto Rico/8/1934(H1N1)). The experiment in a line: Binding affinity to Influenza A virus (A/Puerto Rico/8/1934(H1N1)) PR8 hemagglutinin-1 assessed as association constant after 180 secs by biolayer interferometry analysis.
For assay [5] the test system is unchanged. The experiment in a line: Binding affinity to Influenza A virus (A/Puerto Rico/8/1934(H1N1)) PR8 hemagglutinin-1 assessed as dissociation constant after 180 secs by biolayer interferometry analysis.
Assay [6] concerns Influenza A virus (A/Hong Kong/1/1968(H3N2)). Description: Binding affinity to Influenza A virus (A/Hong Kong/1/1968(H3N2)) […] assessed as association constant after 180 secs by biolayer interferometry analysis.
For assay [7] the test system is unchanged. Description: Potency index, ratio of Kd for Arbidol to Kd for test compound for binding affinity to Influenza A virus (A/Hong Kong/1/1968(H3N2)) […] by biolayer interferometry analysis.
Assay [8] relates to Influenza A virus (A/Puerto Rico/8/1934(H1N1)). The experiment in a line: Potency index, ratio of Kd for Arbidol to Kd for test compound for binding affinity to Influenza A virus (A/Puerto Rico/8/1934(H1N1)) PR8 hemagglutinin-1 by biolayer interferometry analysis.

In general, Kd refers to the equilibrium constant for the complex coming apart.

SMILES strings stand for the structures.

With `CCOC(=O)c1c(CSc2ccc3ccccc3c2)n(C)c2cc(Br)c(O)c(CN(C)C)c12`, the Kd entry in assay [1] and in assay [2] was “Not Active” in each case.

`CCOC(=O)c1c(CSc2ccccc2)n(C)c2cc(Br)c(O)c(CN(C)C)c12` [UMIFENOVIR]: the dissociation constant (Kd) in assay [1] (read-out: Kd) turned out to be 92 µM; in assay [2] (read-out: Kd), 47 µM. The K in assay [3] was found to be 2.8 ×10⁻² /s; in assay [4], 1 ×10³ /M/s; in assay [5], 4.8 ×10⁻² /s; in assay [6], 2.3 ×10² /M/s.

Take `CCOC(=O)c1c(CSc2ccccc2)n(C)c2cc(Br)c(O)c(CN3CCN(CCO)CC3)c12`: the Kd was 46 µM in assay [1] (read-out: Kd) and “Not Active” in assay [2].

Consider `CCOC(=O)c1c(CSc2ccccc2)n(C)c2cc(Br)c(O)c(CN3CCN(C(=O)OC(C)(C)C)CC3)c12`, for which the Kd entry was “Not Active” in assay [1] and 41 µM in assay [2] (read-out: Kd).

As to `CCOC(=O)c1c(CSc2cccc(O)c2)n(C)c2cc(Br)c(O)cc12`, the figures for the dissociation constant (Kd) in assay [1] (read-out: Kd) and in assay [2] (read-out: Kd) were 17 µM and 75 µM, respectively.

For the molecule `CCOC(=O)c1c(CSc2cccc(N)c2)n(C)c2cc(Br)c(O)c(CN(C)C)c12`, the results for the equilibrium dissociation constant (Kd) in assay [1] (read-out: Kd) and in assay [2] were 7.4 µM and “Not Active”, respectively.

`CCOC(=O)c1c(CSc2ccc3ccccc3c2)n(C)c2cc(Br)c(O)cc12`: the Kd in assay [1] (read-out: Kd) is 45 µM; in assay [2] (read-out: Kd), 18 µM.

Turning to `CCOC(=O)c1c(CSc2ccccc2)n(C)c2cc(Br)c(O)cc12`, the equilibrium dissociation constant (Kd) in assay [1] (read-out: Kd) worked out at 11 µM; in assay [2] (read-out: Kd) it was 38 µM.

In the case of `CCOC(=O)c1c(CSc2cccc(N)c2)n(C)c2cc(Br)c(O)cc12`, the Kd in assay [1] (read-out: Kd) was > 100 µM; in assay [2] it was “Not Active”.

With `CCOC(=O)c1c(CSc2cccc(O)c2)n(C)c2cc(Br)c(O)c(CN(C)C)c12`, the K in assay [3] worked out at 1.93 ×10⁻² /s; in assay [4], 7.06 ×10⁴ /M/s; in assay [5], 3.42 ×10⁻² /s; in assay [6], 2.41 ×10⁵ /M/s. Further, the Ratio turned out to be 1150 in assay [7] and 98 in assay [8]. For the same molecule, in assay [2] (read-out: Kd), the dissociation constant Kd was 0.48 to 0.55 µM.
